Measured values published in ChEMBL document CHEMBL1909046, “DrugMatrix in vitro pharmacology data”.

Assays:
D(4) dopamine receptor = target: T1, D(4) dopamine receptor (Homo sapiens, UniProt P21917); assay: DRUGMATRIX: Dopamine D4.2 radioligand binding (ligand: [3H] Spiperone); type: cell membranes, CHO-K1, Membrane; settings: cho-k1; Not Active = under 50% inhibition at 10 µM
T1 sequence (P21917 whole entry): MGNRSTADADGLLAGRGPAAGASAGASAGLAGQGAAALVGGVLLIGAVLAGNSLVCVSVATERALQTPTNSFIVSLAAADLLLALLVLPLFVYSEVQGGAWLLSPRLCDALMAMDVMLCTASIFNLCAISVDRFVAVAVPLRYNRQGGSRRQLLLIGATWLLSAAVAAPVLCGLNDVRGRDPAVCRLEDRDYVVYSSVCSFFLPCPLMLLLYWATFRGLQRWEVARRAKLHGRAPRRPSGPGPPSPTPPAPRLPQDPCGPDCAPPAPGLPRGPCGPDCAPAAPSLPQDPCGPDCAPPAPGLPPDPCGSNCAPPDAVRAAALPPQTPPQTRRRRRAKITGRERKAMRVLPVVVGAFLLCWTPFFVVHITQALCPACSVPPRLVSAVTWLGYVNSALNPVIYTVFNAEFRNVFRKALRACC

Glycine receptor = Glycine receptor (Rattus norvegicus, UniProt P22771+P24524+P07727+P20781); type: cell membranes, Wistar, Spinal cord, Membrane; further: in other assays of this panel Not Active means under 50% inhibition at 10 µM
Melanocortin receptor 4 = Melanocortin receptor 4 (Homo sapiens, UniProt P32245); type: cell membranes, HEK293, Membrane; settings: hek293; further: in other assays of this panel Not Active means under 50% inhibition at 10 µM
[1] = target: T2, Muscarinic acetylcholine receptor M2 (Homo sapiens, UniProt P08172); type: cell membranes, CHO-K1, Membrane; settings: for Ki: read-out: Ki; on all read-outs here: in other assays of this panel Not Active means under 50% inhibition at 10 µM
T2 sequence (P08172 whole entry): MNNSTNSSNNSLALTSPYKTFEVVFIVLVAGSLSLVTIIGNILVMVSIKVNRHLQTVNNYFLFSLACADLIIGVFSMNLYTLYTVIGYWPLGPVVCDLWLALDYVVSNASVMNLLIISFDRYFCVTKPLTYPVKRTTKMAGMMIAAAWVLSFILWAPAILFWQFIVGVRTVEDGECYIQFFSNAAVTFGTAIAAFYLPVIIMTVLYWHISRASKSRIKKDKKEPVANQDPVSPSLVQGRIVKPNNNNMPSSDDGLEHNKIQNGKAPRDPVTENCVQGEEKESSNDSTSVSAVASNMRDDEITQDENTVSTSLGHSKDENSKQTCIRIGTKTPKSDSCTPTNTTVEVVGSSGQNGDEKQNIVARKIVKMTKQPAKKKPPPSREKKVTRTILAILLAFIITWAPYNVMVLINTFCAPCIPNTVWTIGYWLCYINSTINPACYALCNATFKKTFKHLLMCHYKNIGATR

[2] = target: Epidermal growth factor receptor (Homo sapiens, UniProt P00533); assay: DRUGMATRIX: Protein Tyrosine Kinase, EGF Receptor enzyme inhibition (substrate: Poly(Glu:Tyr)); type: cell-based, Insect cells; settings: insect cells; Not Active = under 50% inhibition at 10 µM
[3] = DRUGMATRIX: Purinergic P2X radioligand binding (ligand: [3H] alpha, beta-Methylene-ATP); type: cell membranes, Oryctolagus cuniculus, New Zealand albino, Urinary bladder, Membrane; settings: Not Active = under 50% inhibition at 10 µM

Sequence of Melanocortin receptor 4 (P32245 whole entry): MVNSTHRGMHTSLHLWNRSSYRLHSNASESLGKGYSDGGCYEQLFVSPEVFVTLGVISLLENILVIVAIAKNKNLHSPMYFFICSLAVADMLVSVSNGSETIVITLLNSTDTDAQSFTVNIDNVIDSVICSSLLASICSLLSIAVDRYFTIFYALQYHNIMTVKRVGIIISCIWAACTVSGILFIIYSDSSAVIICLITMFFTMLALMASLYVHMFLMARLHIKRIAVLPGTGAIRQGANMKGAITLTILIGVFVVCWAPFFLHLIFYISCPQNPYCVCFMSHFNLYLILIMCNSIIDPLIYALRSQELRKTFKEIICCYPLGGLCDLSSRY
Sequence of Epidermal growth factor receptor (P00533 whole entry): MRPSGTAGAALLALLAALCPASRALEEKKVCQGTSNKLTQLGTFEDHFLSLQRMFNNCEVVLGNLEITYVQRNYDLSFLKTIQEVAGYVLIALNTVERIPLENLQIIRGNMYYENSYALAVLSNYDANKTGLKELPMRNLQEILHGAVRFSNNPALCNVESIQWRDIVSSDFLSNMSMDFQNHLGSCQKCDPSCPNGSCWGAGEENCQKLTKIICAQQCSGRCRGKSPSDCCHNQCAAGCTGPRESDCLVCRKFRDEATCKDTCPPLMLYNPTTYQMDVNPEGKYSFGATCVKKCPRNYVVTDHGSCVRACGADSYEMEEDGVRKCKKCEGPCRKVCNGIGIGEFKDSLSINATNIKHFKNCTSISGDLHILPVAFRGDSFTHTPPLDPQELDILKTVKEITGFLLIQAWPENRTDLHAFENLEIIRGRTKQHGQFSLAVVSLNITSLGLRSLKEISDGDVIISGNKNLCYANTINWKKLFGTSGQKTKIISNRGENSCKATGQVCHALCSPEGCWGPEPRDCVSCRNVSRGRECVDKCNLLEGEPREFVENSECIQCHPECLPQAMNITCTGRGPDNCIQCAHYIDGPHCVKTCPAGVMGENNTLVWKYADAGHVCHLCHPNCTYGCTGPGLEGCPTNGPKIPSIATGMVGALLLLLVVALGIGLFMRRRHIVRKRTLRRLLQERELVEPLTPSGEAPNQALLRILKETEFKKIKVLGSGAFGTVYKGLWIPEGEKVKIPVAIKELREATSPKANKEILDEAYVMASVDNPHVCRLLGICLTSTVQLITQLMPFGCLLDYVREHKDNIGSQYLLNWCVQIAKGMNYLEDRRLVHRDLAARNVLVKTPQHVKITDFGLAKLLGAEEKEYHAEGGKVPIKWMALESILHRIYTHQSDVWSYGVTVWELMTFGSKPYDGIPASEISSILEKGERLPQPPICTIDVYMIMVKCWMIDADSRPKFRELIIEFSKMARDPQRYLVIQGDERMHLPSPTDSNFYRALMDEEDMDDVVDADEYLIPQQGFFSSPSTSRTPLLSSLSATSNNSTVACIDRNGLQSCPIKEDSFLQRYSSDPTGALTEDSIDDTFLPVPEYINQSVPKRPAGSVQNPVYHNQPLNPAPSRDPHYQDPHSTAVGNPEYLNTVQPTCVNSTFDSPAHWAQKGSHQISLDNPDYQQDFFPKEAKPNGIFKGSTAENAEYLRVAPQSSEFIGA

SMILES	IC50 (D(4) dopamine receptor)	IC50 (Glycine receptor)	IC50 (Melanocortin receptor 4)	IC50 ([1]; read-out: IC50) [nM]	Ki [1] [nM]	IC50 [2]	IC50 [3]	Ki [3]	IC50 ([1]; cho-k1)
CN(C)CC[C@@H](c1ccc(Cl)cc1)c1ccccn1 [DEXCHLORPHENIRAMINE]	Not Active	Not Active	Not Active	6990	2490	Not Active	Not Active	Not Active	–
C[C@@H]1CC[C@@]2(OC1)O[C@H]1[C@@H](O)[C@H]3[C@@H]4CC[C@H]5C[C@@H](O[C@@H]6O[C@H](CO)[C@H](O[C@@H]7O[C@H](CO)C(O)[C@H](O[C@@H]8OC[C@@H](O)[C@H](O)[C@H]8O)[C@H]7O[C@@H]7O[C@H](CO)[C@H](O)[C@H](O[C@@H]8O[C@H](CO)[C@@H](O)[C@H](O)[C@H]8O)[C@H]7O)[C@H](O)[C@H]6O)[C@H](O)C[C@]5(C)[C@H]4CC[C@]3(C)[C@H]1[C@@H]2C (stereo partly drawn) [DIGITONIN]	Not Active	Not Active	Not Active	–	–	Not Active	Not Active	Not Active	Not Active
OC(CCCN1CCCCC1)(c1ccccc1)c1ccccc1 [DIPHENIDOL]	Not Active	Not Active	Not Active	770	274	Not Active	Not Active	Not Active	–
C[C@H]1O[C@@H](n2cc(F)c(=O)[nH]c2=O)[C@H](O)[C@@H]1O [DOXIFLURIDINE]	Not Active	Not Active	Not Active	–	–	Not Active	Not Active	Not Active	Not Active
Cn1c(=O)c2c(ncn2CC(O)CO)n(C)c1=O (stereo not drawn) [DYPHYLLINE]	Not Active	Not Active	Not Active	–	–	Not Active	Not Active	Not Active	Not Active
CC[C@H]1CN2CCc3cc(OC)c(OC)cc3[C@@H]2C[C@@H]1C[C@H]1NCCc2cc(OC)c(OC)cc21 [EMETINE]	Not Active	Not Active	Not Active	–	–	Not Active	Not Active	Not Active	Not Active
C[C@@H](CO)NC(=O)[C@@H]1C=C2c3cccc4[nH]cc(c34)C[C@H]2N(C)C1 [ERGONOVINE]	Not Active	Not Active	Not Active	–	–	Not Active	Not Active	Not Active	Not Active
COC(=O)CCc1ccc(OCC(O)CNC(C)C)cc1 (stereo not drawn) [ESMOLOL]	Not Active	Not Active	Not Active	–	–	Not Active	Not Active	Not Active	Not Active
CCC1(C)CC(=O)NC1=O (stereo not drawn) [ETHOSUXIMIDE]	Not Active	Not Active	Not Active	–	–	Not Active	Not Active	Not Active	Not Active
C#C[C@]1(OC(C)=O)CC[C@H]2[C@@H]3CCC4=C[C@@H](OC(C)=O)CC[C@@H]4[C@H]3CC[C@@]21C [ETHYNODIOL DIACETATE]	Not Active	Not Active	Not Active	–	–	Not Active	Not Active	Not Active	Not Active
COc1cc([C@@H]2c3cc4c(cc3[C@@H](O[C@@H]3O[C@@H]5CO[C@@H](C)O[C@H]5[C@H](O)[C@H]3O)[C@H]3COC(=O)[C@H]23)OCO4)cc(OC)c1O [ETOPOSIDE]	Not Active	Not Active	Not Active	–	–	Not Active	Not Active	Not Active	Not Active
C=CCc1ccc(O)c(OC)c1 [EUGENOL]	Not Active	Not Active	Not Active	–	–	Not Active	Not Active	Not Active	Not Active
CC(C(=O)O)c1cccc(Oc2ccccc2)c1 (stereo not drawn) [FENOPROFEN]	Not Active	Not Active	Not Active	–	–	Not Active	Not Active	Not Active	Not Active
